Data set [1] in a line: Metabolic stability in human liver microsomes assessed as parent compound remaining at 1 uM preincubated for 3 mins followed by NADP+ addition measured after 30 mins by LC-MS assay. In kind it is ADME, microsome. The conditions noted are these: read-out: Stability.
Data set [2] deals with HepG2. As to the kind of experiment: Cytotoxicity against human HepG2 cells assessed as reduction in cell viability at 50 uM after 24 hrs by WST8 assay. The following applies: hepg2, 24 h. In kind it is cell-based. A general note: Formazan colour is commonly taken as a measure of viable cells.
Data set [3] has as its target T1, Kelch-like ECH-associated protein 1/Nuclear factor erythroid 2-related factor 2 (Mus musculus) (UniProt Q60795+Q9Z2X8). The experiment in a line: Inhibition of Keap1-Nrf2 protein-protein interaction in MEF assessed as increase in Nrf2 activation mediated NQO1 mRNA level at 100 uM after 4 hrs by qRT-PCR method. (Real-time PCR tracks product formation cycle by cycle.)

The target in data set [4] is T1, Kelch-like ECH-associated protein 1/Nuclear factor erythroid 2-related factor 2 (Mus musculus). The experiment in a line: Inhibition of Keap1-Nrf2 protein-protein interaction in MEF assessed as increase in Nrf2 activation mediated NQO1 mRNA level at 10 uM after 4 hrs by qRT-PCR method.

The source made the active and inactive calls. The calls are words filed in the database; no cut-off is given here.

The values that follow come from ChEMBL document CHEMBL4043278, “Discovery of benzo[g]indoles as a novel class of non-covalent Keap1-Nrf2 protein-protein interaction inhibitor” (Bioorg Med Chem Lett, 2017).

T1 sequence (Q60795 whole entry, looked up): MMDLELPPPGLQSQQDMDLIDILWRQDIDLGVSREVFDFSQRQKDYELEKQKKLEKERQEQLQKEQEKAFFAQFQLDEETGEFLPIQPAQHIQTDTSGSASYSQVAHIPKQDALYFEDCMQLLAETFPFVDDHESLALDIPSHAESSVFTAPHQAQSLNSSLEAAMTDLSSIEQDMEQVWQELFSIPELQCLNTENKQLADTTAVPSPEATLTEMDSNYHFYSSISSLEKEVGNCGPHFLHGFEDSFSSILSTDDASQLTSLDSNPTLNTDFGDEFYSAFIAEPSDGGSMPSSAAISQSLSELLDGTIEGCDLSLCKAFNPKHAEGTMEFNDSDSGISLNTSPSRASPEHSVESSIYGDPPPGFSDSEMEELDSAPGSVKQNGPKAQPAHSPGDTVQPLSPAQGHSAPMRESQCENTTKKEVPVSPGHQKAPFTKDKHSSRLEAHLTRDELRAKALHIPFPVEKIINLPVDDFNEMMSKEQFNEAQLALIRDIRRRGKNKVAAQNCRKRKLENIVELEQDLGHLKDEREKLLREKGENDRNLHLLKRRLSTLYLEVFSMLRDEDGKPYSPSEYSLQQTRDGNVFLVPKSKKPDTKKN
T1 sequence (Q9Z2X8 whole entry, looked up): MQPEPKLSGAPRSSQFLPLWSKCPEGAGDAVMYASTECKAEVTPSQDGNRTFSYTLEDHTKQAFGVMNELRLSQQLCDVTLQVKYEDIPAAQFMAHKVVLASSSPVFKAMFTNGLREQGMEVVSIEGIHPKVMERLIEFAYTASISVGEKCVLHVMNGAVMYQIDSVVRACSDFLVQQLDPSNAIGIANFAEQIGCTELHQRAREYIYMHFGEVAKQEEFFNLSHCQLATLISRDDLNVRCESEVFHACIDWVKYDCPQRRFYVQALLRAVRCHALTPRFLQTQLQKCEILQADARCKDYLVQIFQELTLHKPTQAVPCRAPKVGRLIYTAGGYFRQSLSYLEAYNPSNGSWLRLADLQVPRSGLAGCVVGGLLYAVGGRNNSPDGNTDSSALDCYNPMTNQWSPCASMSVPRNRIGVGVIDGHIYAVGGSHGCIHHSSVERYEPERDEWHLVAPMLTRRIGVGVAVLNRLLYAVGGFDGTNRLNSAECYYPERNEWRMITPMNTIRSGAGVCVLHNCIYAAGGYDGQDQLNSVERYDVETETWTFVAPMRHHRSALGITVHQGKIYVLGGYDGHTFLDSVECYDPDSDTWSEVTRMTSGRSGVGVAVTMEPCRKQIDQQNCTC

For `COc1ccc(S(=O)(=O)Nc2cc3c(C(=O)NNc4ccccc4)c(C)n(S(=O)(=O)c4ccc(OC)cc4)c3c3ccccc23)cc1`, the remaining at 0.5 h, 1 µM in data set [1] amounted to 85.4%. Also, in data set [2], the Activity entry was “Non-Toxic”.

With `COc1ccc(S(=O)(=O)Nc2cc3c(C(=O)NNc4ccc([N+](=O)[O-])cc4)c(C)n(S(=O)(=O)c4ccc(OC)cc4)c3c3ccccc23)cc1`, in data set [1], the remaining at 0.5 h, 1 µM was 86.5%. Moreover, the Activity result in data set [2] was “Toxic”. The matching figures for `COc1ccc(S(=O)(=O)N(CC(=O)O)c2ccc(N(CC(=O)O)S(=O)(=O)c3ccc(OC)cc3)c3ccccc23)cc1`: 58.6% and “Non-Toxic”. `COc1ccc(NNC(=O)c2c(C)n(S(=O)(=O)c3ccc(OC)cc3)c3c2cc(NS(=O)(=O)c2ccc(OC)cc2)c2ccccc23)cc1`: the remaining at 0.5 h, 1 µM in data set [1] was 94.8%. In addition, the Activity result in data set [2] is listed as “Non-Toxic”. In the case of `CCOc1ccc(S(=O)(=O)Nc2cc3c(C(=O)NN)c(C)n(S(=O)(=O)c4ccc(OCC)cc4)c3c3ccccc23)cc1`, the remaining at 0.5 h, 1 µM in data set [1] is 46.6%. Also, in data set [2], the Activity entry is listed as “Non-Toxic”. As to `CCOc1ccc(S(=O)(=O)Nc2cc3c(C(=O)NO)c(C)n(S(=O)(=O)c4ccc(OCC)cc4)c3c3ccccc23)cc1`, the remaining at 0.5 h, 1 µM in data set [1] was 81%. For the same compound, in data set [3], the inhibition entry was “Active”. Also, the Activity result in data set [2] is “Non-Toxic”.

Regarding `CC(C)(C)c1cc(O)ccc1O`, the inhibition entry in data set [4] is “Active”. Take `COc1cccc2c1C(=O)c1c(O)c3c(c(O)c1C2=O)C[C@@](O)(C(=O)CO)C[C@@H]3O[C@H]1C[C@H](N)[C@H](O)[C@H](C)O1` [DOXORUBICIN]: the Activity result in data set [2] is “Toxic”. Turning to `COc1ccc(S(=O)(=O)Nc2ccc(NS(=O)(=O)c3ccc(OC)cc3)c3ccccc23)cc1`, the remaining at 0.5 h, 1 µM in data set [1] amounted to 9.3%. For the compound `CNNC(=O)c1c(C)n(S(=O)(=O)c2ccc(OC)cc2)c2c1cc(NS(=O)(=O)c1ccc(OC)cc1)c1ccccc12`, the remaining at 0.5 h, 1 µM in data set [1] turned out to be 90.8%. Also, the Activity result in data set [2] was “Non-Toxic”.
